Paper PMC6063448, “Antimicrobial activity of linear lipopeptides derived from BP100 towards plant pathogens” (PLoS ONE, 2018)

Columns and labels:
[1] = test system: defense-related genes in tomato plants; assay: Induction of defense gene expression of tomato plants (RT-qPCR); format: in vivo, tomato cv. Rio Grande; conditions: for BCB gene expression, fold induction / ERT3 gene expression, fold induction / GluA gene expression, fold induction / Harp gene expression, fold induction / LOX gene expression, fold induction / Osm2 gene expression, fold induction / PPO gene expression, fold induction / PR1 gene expression, fold induction / PinII gene expression, fold induction / Sub1 gene expression, fold induction / Tas14 gene expression, fold induction: tomato leaves sprayed, 24 h, peptides and flg15 125 μM, JA 2.5 mM, ASM 300 mg/L, ΔΔCt relative to actin, above 2 = overexpression; for Defense gene expression in tomato plants (genes overexpressed): treatment at 125 μM, significant overexpression (REST2009)
Experimental: Seeds of tomato cv. Rio Grande plants were sown in hydroponic seed plugs (rockwool), germinated and grown under controlled greenhouse conditions (25 ± 2°C, 16 h light / 15 ± 2°C, 8 h dark, and 60% RH). Two-week old seedlings (two cotyledons) were transplanted into rockwool plugs (7.5×7.5×6.5 cm, Grodan Iberica). The experimental design consisted of three replicates of three plants per treatment. After two weeks, tomato leaves were sprayed with aqueous solutions of BP100, 9 selected derivatives and flg15 at 125 μM, jasmonic acid at 2.5 mM (Sigma-Aldrich, Sant Louis, Missouri, UE), and acybenzolar-S-methyl at 300 mg/L (Syngenta, Basel, Switzerland), until the run-off point. Water-sprayed plants were used as not treated controls. Twenty-four hours after product application leaf samples were collected and processed to extract RNA for RT-qPCR assays. Plant material was ground to a fine powder in liquid nitrogen with the Tissuelyzer II system (Qiagen). Total RNA was extracted from leaves using PureLink Plant RNA Reagent (Invitrogen, Life Technologies) according to the manufacturer’s manual. The RNA was solubilized in RNAse free water and was routinely subjected to DNAse treatment (Ambion® Turbo DNA-free™, Life Technologies) to remove any contaminant DNA. In each step, the RNA was quantified using a Nanodrop N-2000 spectrophotometer, and its integrity verified by denaturing agarose gel electrophoresis. First-strand of complementary DNA (cDNA) was generated from leave RNA using reverse transcriptase (High Capacity cDNA Reverse Transcription Kit, Invitrogen) according to the manufacturer’s manual.
To test gene defense induction in the treated tomato plants, a qPCR assay was performed. Quantitative PCR was carried out in a fluorometric thermal cycler (qPCR Quant Studio 5, Applied Biosystems) by using a Mix SYBR®Green PCR Master Mix (Applied Biosystems). The total reaction volume of this PCR reaction was 20 μL and the reaction mixture was 1 μL of each primer set at the adequate concentration, 10 μL of MixSyber Green, 6 μL of distilled water and 2 μL of cDNA. Melting curve analysis was performed after amplification to verify amplification specificity. A constitutive gene (actin gene) was used as reference control, and the following genes implicated in plant defense response were analyzed: Pathogenesis-related protein-1 (PR1), Harpin (Harp), Polyphenol oxidase (PPO), Subtilisin-like protease (Sub1), Blue copper binding-protein (BCB), Osmotin (Osm2), Acidic β-1,3 endoglucanase (GluA), Lypoxigenase (LOX), Protein inhibitor II (PinII), Dehydrin (Tas14) and Ethylene response transcription factor (ERT3). […] For each gene system, the concentration of the primer pair was optimized. The primer concentration was 100 nM for all the genes except for the GluA, Harp, PR1 and actin genes which optimized concentration was 300 nM. A calibration curve was prepared by cloning the corresponding DNA in the pSpark cloning vector (Canvax, Córdoba, Spain) according to the manufacturer instructions, which was then used to transform E. coli DH5α by standard procedures. The number of plasmid copies were quantified after purification from E. coli (QIAGEN Iberia, S. L., Madrid, Spain), and appropriate dilutions were prepared to obtain the standard curve. […] Relative quantification of gene expression was done using the ΔΔCt method. Each biological repetition treatment was analyzed in duplicate. The mean of the Ct values obtained were used to estimate the fold change value of the endogenous reference gene (actin) and the target plant defense genes.

[2] = test system: Penicillium expansum EPS26; assay: MIC, antifungal growth inhibition in microtiter plates (PDB); format: cell-based; conditions: Pe, 22°C, seven days, OD 600 nm, lowest concentration with no growth, given as interval of tested concentrations, three replicates, experiment repeated twice
Procedure, shortened: (§1)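 Conidial suspensions (10^3 conidia/mL P. expansum, 10^4 F. oxysporum) incubated with peptides in PDB with 0.003% chloramphenicol at 22 °C for seven days, OD600 read every 2 h. MIC is the lowest concentration with no growth at the end; triplicates, experiment repeated twice.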

[3] = test system: Fusarium oxysporum f. sp. lycopersici FOL 3 race 2; assay: as above; format: cell-based; conditions: Fo, 22°C, seven days, OD 600 nm, lowest concentration with no growth, given as interval of tested concentrations, three replicates, experiment repeated twice
Procedure, shortened: as §1

| SMILES | BCB gene expression, fold induction [1] | ERT3 gene expression, fold induction [1] | GluA gene expression, fold induction [1] | Harp gene expression, fold induction [1] | LOX gene expression, fold induction [1] | Osm2 gene expression, fold induction [1] | PPO gene expression, fold induction [1] | PR1 gene expression, fold induction [1] | PinII gene expression, fold induction [1] | Sub1 gene expression, fold induction [1] | Tas14 gene expression, fold induction [1] | Defense gene expression in tomato plants (genes overexpressed) [1] | MIC [2] [µM] | MIC [3] [µM] |
| --- | --- | --- | --- | --- | --- | --- | --- | --- | --- | --- | --- | --- | --- | --- |
| CCCC(=O)NCCCC[C@H](NC(=O)[C@H](Cc1ccc(O)cc1)NC(=O)[C@H](CCCCN)NC(=O)[C@H](CC(C)C)NC(=O)[C@@H](NC(=O)[C@H](CCCCN)NC(=O)[C@H](CCCCN)NC(=O)[C@H](Cc1ccccc1)NC(=O)[C@H](CC(C)C)NC(=O)[C@H](CCCCN)NC(=O)[C@H](CCCCN)NC(C)=O)[C@@H](C)CC)C(N)=O [BP390, Ac-KKLFKKILKYK(COC3H7)-NH2] | 0.6 | 0.7 | 0.6 | 0.5 | 1.2 | 3.0 | 0.9 | 0.2 | 0.2 | 0.7 | 1.0 | one gene (Osm2, Tas14 or BCB) | 6.2 to 12.5 | 0.8 to 1.6 |
| CCCCCCCCCCCC(=O)NCCCC[C@H](NC(=O)[C@H](CC(C)C)NC(=O)[C@@H](NC(=O)[C@H](CCCCN)NC(=O)[C@H](CCCCN)NC(=O)[C@H](Cc1ccccc1)NC(=O)[C@H](CC(C)C)NC(=O)[C@H](CCCCN)NC(=O)[C@H](CCCCN)NC(C)=O)[C@@H](C)CC)C(=O)N[C@@H](Cc1ccc(O)cc1)C(=O)N[C@@H](CC(C)C)C(N)=O [BP400, Ac-KKLFKKILK(COC11H23)YL-NH2] | 0.6 | 0.2 | 0.1 | 1.4 | 1.1 | 0.9 | 1.4 | 0.1 | 1.1 | 0.5 | 8.3 | one gene (Osm2, Tas14 or BCB) | >25 | 6.2 to 12.5 |
| CC[C@H](C)[C@H](NC(=O)[C@H](CCCCN)NC(=O)[C@H](CCCCN)NC(=O)[C@H](Cc1ccccc1)NC(=O)[C@H](CC(C)C)NC(=O)[C@H](CCCCN)NC(=O)[C@@H](N)CCCCN)C(=O)N[C@@H](CC(C)C)C(=O)N[C@@H](CCCCN)C(=O)N[C@@H](Cc1ccc(O)cc1)C(=O)N[C@@H](CC(C)C)C(N)=O [BP100, H-Lys-Lys-Leu-Phe-Lys-Lys-Ile-Leu-Lys-Tyr-Leu-NH2] | 0.8 | 1.0 | 1.5 | 0.5 | 1.2 | 1.0 | 3.2 | 2 | 4.9 | 1.8 | 1.4 | PPO and PinII | >25 | 0.8 to 1.6 |
